SMILES strings stand for the structures.

The test system of this assay is testosterone-enhanced ventral prostate and seminal vesicle weights in castrated male Sprague Dawley rats. Briefly: Ventral Prostate and Seminal Vesicle Weight In Vivo Assay. Also noted: species or system rat. Particulars: immature castrated rats; once daily for five days, usually orally at 40 mg/kg, with testosterone propionate 2 mg/kg s.c. The method, then: Immature (approximately 50 g) castrated male Sprague Dawley rats (Charles River) were treated once daily for five days with test compound (usually given orally at 40 mg/kg in a volume of 0.3 mL, in 30% cyclodextrin or 0.5% methylcellulose vehicle) and with testosterone propionate (given subcutaneously by injection at the nape of the neck at 2 mg/kg, in a volume of 0.1 mL in sesame oil). On the sixth day, the rats were euthanized by asphyxiation in carbon dioxide. Ventral prostates and seminal vesicles were removed and their wet weights determined.
A test compound was said to be “active” if the non weight adjusted prostate weight was ≦40 mg or the % Inhibition prostate weight, body weight adjusted was ≧40% @2 mg/day dosage.
As for `CCS(=O)(=O)CC(O)c1cc2cc(C#N)c(C(F)(F)F)cc2[nH]1` (racemic) [compound 412], the “active / inactive (inhibition of testosterone-enhanced prostate weight)” value is “inactive”. Turning to `CCSCC(C)(O)c1cc2cc(C#N)c(C)c(I)c2[nH]1` (racemic) [compound 415], the “active / inactive (inhibition of testosterone-enhanced prostate weight)” value is “inactive”. On to `CC(O)(CSCc1ccccn1)c1cc2cc([N+](=O)[O-])c(C(F)(F)F)cc2[nH]1` (racemic) [compound 204], for which the “active / inactive (inhibition of testosterone-enhanced prostate weight)” value is “inactive”. For `Cc1c(C(C)(C)O)[nH]c2cc(C(F)(F)F)c([N+](=O)[O-])cc12` [compound 290], the “active / inactive (inhibition of testosterone-enhanced prostate weight)” value was “inactive”.

With `COCn1c(C(C)(O)C(F)(F)F)cc2cc(C#N)c(C(F)(F)F)cc21` (racemic) [compound 332], the “active / inactive (inhibition of testosterone-enhanced prostate weight)” value is on record as “active”. Next, `CCSCC(C)(O)c1[nH]c2cc(C(F)(F)F)c(C#N)cc2c1C#C[Si](C)(C)C` (racemic) [compound 325]: “inactive”; `CC(C)(O)c1cc2cc([N+](=O)[O-])c(C(F)(F)F)cc2[nH]1` [compound 274]: “inactive”. With `CC(C)(O)c1cc2cc(Cl)c(C(F)(F)F)cc2[nH]1` [compound 285], the “active / inactive (inhibition of testosterone-enhanced prostate weight)” value is “inactive”. Consider `CCSCC(O)c1[nH]c2cc(C(F)(F)F)c(C#N)cc2c1I` (racemic) [compound 411], for which the “active / inactive (inhibition of testosterone-enhanced prostate weight)” value is “inactive”. The value for `CSCn1c(C(C)(O)C(F)(F)F)cc2cc(C#N)c(C(F)(F)F)cc21` (racemic) [compound 333] was “active”; that for `CCSCC(C)(O)c1cc2cc([N+](=O)[O-])c(C(F)(F)F)cc2[nH]1` (racemic) [compound 153] was “inactive”. `CCSCC(O)(CC)c1cc2cc(Cl)c(C(F)(F)F)cc2[nH]1` (racemic) [compound 181]: the “active / inactive (inhibition of testosterone-enhanced prostate weight)” value was “active”. With `CCS(=O)(=O)CC(C)(O)c1cc2cc([N+](=O)[O-])c(C(F)(F)F)cc2n1C` (single isomer, unassigned) [compound 250], the “active / inactive (inhibition of testosterone-enhanced prostate weight)” value is recorded as “active”. On to `CC(O)(c1[nH]c2cc(C(F)(F)F)c(C#N)cc2c1C#C[Si](C)(C)C)C(F)(F)F` (single isomer, unassigned) [compound 347], for which the “active / inactive (inhibition of testosterone-enhanced prostate weight)” value is “active”. With `C=Cc1c(C(C)(C)O)[nH]c2cc(C(F)(F)F)c([N+](=O)[O-])cc12` [compound 281], the “active / inactive (inhibition of testosterone-enhanced prostate weight)” value was “inactive”. On to `CC(O)(c1cc2cc(C#N)c(C(F)(F)F)cc2[nH]1)C(F)(F)F` (stereo not shown) [Compound #334, 2-(2,2,2-Trifluoro-1-hydroxy-1-methyl-ethyl)-6-trifluoromethyl-1H-indole-5-carbonitrile], for which the “active / inactive (inhibition of testosterone-enhanced prostate weight)” value was “active”. With `N#Cc1cc2cc(C3(O)CCSC3)[nH]c2cc1C(F)(F)F` (stereo not shown) [Compound #15], the “active / inactive (inhibition of testosterone-enhanced prostate weight)” value was “inactive”.

Turning to `CC(C)(O)c1[nH]c2cc(C(F)(F)F)c([N+](=O)[O-])cc2c1I` [compound 276], the “active / inactive (inhibition of testosterone-enhanced prostate weight)” value is recorded as “active”. With `CCSCC(O)c1cc2cc(C#N)c(C(F)(F)F)cc2[nH]1` (racemic) [compound 410], the “active / inactive (inhibition of testosterone-enhanced prostate weight)” value was “inactive”. As to `CC(C)(O)c1cc2cc(Br)ccc2[nH]1` [compound 294], the “active / inactive (inhibition of testosterone-enhanced prostate weight)” value is “inactive”. Consider `CCSCC(C)(O)c1cc2cc([N+](=O)[O-])c(C(F)(F)F)cc2o1` (racemic) [compound 9], for which the “active / inactive (inhibition of testosterone-enhanced prostate weight)” value was “inactive”. For the compound `CC(O)(CS(=O)(=O)c1ccc(F)cc1)c1cc2cc(Cl)c(C(F)(F)F)cc2[nH]1` (stereo not shown) [compound 85], the “active / inactive (inhibition of testosterone-enhanced prostate weight)” value is “inactive”. As to `CC(O)(c1cc2cc(C#N)c(C(F)(F)F)cc2[nH]1)C(F)(F)F` (stereo not shown) [Compound #329, 2-(2,2,2-Trifluoro-1-hydroxy-1-methyl-ethyl)-6-trifluoromethyl-1H-indole-5-carbonitrile], the “active / inactive (inhibition of testosterone-enhanced prostate weight)” value is “active”. As to `CC(C)(O)c1[nH]c2cc(C(F)(F)F)c(Cl)cc2c1I` [compound 279], the “active / inactive (inhibition of testosterone-enhanced prostate weight)” value is “inactive”. `CCSCC(C)(OC)c1cc2cc([N+](=O)[O-])c(C(F)(F)F)cc2[nH]1` (stereo not shown) [compound 167]: the “active / inactive (inhibition of testosterone-enhanced prostate weight)” value is recorded as “active”. Consider `CCSCC(C)(O)c1cc2cc(C)c(C(F)(F)F)cc2[nH]1` (racemic) [compound 414], for which the “active / inactive (inhibition of testosterone-enhanced prostate weight)” value was “inactive”. Regarding `CCc1c(C(C)(O)CS(=O)(=O)CC)[nH]c2cc(C(F)(F)F)c(C#N)cc12` (single isomer, unassigned) [compound 354], the “active / inactive (inhibition of testosterone-enhanced prostate weight)” value is recorded as “active”. In the case of `CC(C)(O)c1[nH]c2cc(C(F)(F)F)c([N+](=O)[O-])cc2c1C#N` [compound 291], the “active / inactive (inhibition of testosterone-enhanced prostate weight)” value is on record as “active”.

With `CCSCC(C)(O)c1cc2cc(Cl)c(C(F)(F)F)cc2n1S(C)(=O)=O` (racemic) [compound 146], the “active / inactive (inhibition of testosterone-enhanced prostate weight)” value was “inactive”.

`CCSCC(C)(O)c1cc2cc(C#N)ccc2[nH]1` (racemic) [compound 403]: the “active / inactive (inhibition of testosterone-enhanced prostate weight)” value is “inactive”. Next, `CCS(=O)(=O)CC(C)(O)c1cc2cc(C#N)c(C(F)(F)F)cc2[nH]1` (racemic) [compound 407]: “inactive”; `CCSCC(C)(O)c1cc2cc(C#N)c(C(F)(F)F)cc2n1CC` (racemic) [compound 243]: “active”; `CC(C)(O)c1cc2cc(Cl)c(C(F)(F)F)cc2n1S(C)(=O)=O` [compound 284]: “active”.

For `CCSCC(C)(O)c1c(C)c2cc(C#N)c(C(F)(F)F)cc2n1C` (single isomer, unassigned) [compound 318], the “active / inactive (inhibition of testosterone-enhanced prostate weight)” value was “inactive”.

As to `CCSCC(C)(O)c1cc2cc(C#N)c(C(F)(F)F)cc2n1CC(F)(F)F` (racemic) [compound 237], the “active / inactive (inhibition of testosterone-enhanced prostate weight)” value was “active”. Next, `O=[N+]([O-])c1cc2cc(C3(O)CCSC3)[nH]c2cc1C(F)(F)F` (stereo not shown) [compound 18]: “inactive”; `CC(C)(O)c1[nH]c2cc(C(F)(F)F)c(Cl)cc2c1Br` [compound 280]: “inactive”.
